Assay results reported in ChEMBL document CHEMBL4418308, “cGAS ANTAGONIST COMPOUNDS” (2017).

Assays:
[1] = biological target: T1, Cyclic GMP-AMP synthase (Homo sapiens, UniProt Q8N884); test: Inhibition of recombinant His6-SUMO tagged human CGAS expressed in Escherichia coli BL21/pLys cells incubated for 20 mins by Kinase Glo chemiluminescence assay
[2] = biological target: T1, Cyclic GMP-AMP synthase; test: Inhibition of CGAS in human THP1 cells transfected with mock Sendai virus and measured after 16 hrs by Gaussia luciferase reporter gene assay; assay type: cell-based
[3] = biological target: T1, Cyclic GMP-AMP synthase; test: Inhibition of CGAS in human THP1 cells transfected with interferon stimulatory DNA and measured after 16 hrs by Gaussia luciferase reporter gene assay; assay type: cell-based

T1 sequence (Q8N884 whole entry): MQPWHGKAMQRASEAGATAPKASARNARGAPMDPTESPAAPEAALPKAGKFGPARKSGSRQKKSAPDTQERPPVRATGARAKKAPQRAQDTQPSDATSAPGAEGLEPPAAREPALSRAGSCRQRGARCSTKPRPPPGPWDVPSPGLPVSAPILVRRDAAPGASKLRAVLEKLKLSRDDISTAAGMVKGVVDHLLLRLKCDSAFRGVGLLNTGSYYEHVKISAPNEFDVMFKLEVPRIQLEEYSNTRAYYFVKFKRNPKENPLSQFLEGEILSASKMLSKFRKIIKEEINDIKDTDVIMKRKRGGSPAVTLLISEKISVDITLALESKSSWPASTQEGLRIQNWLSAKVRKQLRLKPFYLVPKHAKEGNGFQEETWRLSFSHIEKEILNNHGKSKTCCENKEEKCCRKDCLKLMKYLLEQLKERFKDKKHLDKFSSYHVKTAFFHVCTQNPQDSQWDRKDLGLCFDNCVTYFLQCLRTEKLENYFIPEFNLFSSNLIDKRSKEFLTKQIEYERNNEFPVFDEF

| SMILES | IC50 [1] [µM] | IC50 [2] [µM] | IC50 [3] [µM] |
| --- | --- | --- | --- |
| CN1C(=O)S/C(=C\c2cc(OCc3cnc(Cl)nc3)c(O)cc2Br)C1=O | ≤ 0.5 | ≥ 10 | 2.5 to 10 |
| CN1C(=O)S/C(=C\c2cc(Oc3ccc(N)nc3)c(O)cc2Br)C1=O | ≥ 10 | ≥ 10 | 2.5 to 10 |
| CN1C(=O)S/C(=C\c2cc(OCc3cnc(NCc4ccncc4)nc3)c(O)cc2Br)C1=O | ≤ 0.5 | ≥ 10 | 2.5 to 10 |
| COCCNc1ncc(COc2cc(/C=C3\Sc4ncccc4C3=O)c(Br)cc2O)cn1 | ≤ 0.5 | ≥ 10 | 2.5 to 10 |
| Nc1ncncc1COc1cc(/C=C2\Sc3ncccc3C2=O)c(Br)cc1O | ≤ 0.5 | ≥ 10 | 2.5 to 10 |
| CN1C(=O)S/C(=C\c2cc(OCc3cnc(N)nc3)c(O)c(F)c2Br)C1=O | ≤ 0.5 | ≥ 10 | ≤ 2.5 |
| CN1C(=O)S/C(=C\c2cc(OCc3cnc[nH]3)c(O)cc2Br)C1=O | ≥ 10 | ≥ 10 | 2.5 to 10 |
| CN1C(=O)S/C(=C\c2cc(OC(F)(F)F)c(O)cc2Br)C1=O | ≥ 10 | 2.5 to 10 | ≤ 2.5 |
| COc1cc(/C=C2\SC(=O)N(C)C2=O)c(I)cc1O | ≤ 0.5 | ≥ 10 | 2.5 to 10 |
| CN1C(=O)S/C(=C\c2cc(OCc3cnc(NC4CC4)nc3)c(O)cc2Br)C1=O | 0.5 to 10 | ≥ 10 | ≤ 2.5 |
| COCCNc1ncc(COc2cc(/C=C3\SC(=O)N(C)C3=O)c(Br)c(F)c2O)cn1 | ≤ 0.5 | ≥ 10 | 2.5 to 10 |
| CN1C(=O)S/C(=C\c2cc(OCc3cn(-c4ccncc4)nn3)c(O)cc2Br)C1=O | ≥ 10 | ≥ 10 | 2.5 to 10 |
| O=C1/C(=C/c2cc(OCc3cncnc3)c(O)cc2Br)Sc2ncccc21 | ≤ 0.5 | ≥ 10 | 2.5 to 10 |
| CC(C)n1ccc(COc2cc(/C=C3\SC(=O)N(C)C3=O)c(Br)cc2O)cc1=O | ≥ 10 | ≥ 10 | 2.5 to 10 |
| CN1C(=O)S/C(=C\c2cc(OCc3cnc(N4CCNCC4)nc3)c(O)cc2Br)C1=O | ≤ 0.5 | ≥ 10 | 2.5 to 10 |
| CC1C(=O)S/C(=C\c2cc(OC(C)c3cnc(Cl)nc3)c(O)c(F)c2Br)C1=O (centres undefined) | ≤ 0.5 | 2.5 to 10 | 2.5 to 10 |
| CNc1ncc(COc2cc(/C=C3\Sc4ncccc4C3=O)c(Br)cc2O)cn1 | ≤ 0.5 | ≥ 10 | 2.5 to 10 |
| CN1C(=O)S/C(=C\c2cc(OCc3cnc([S+](C)[O-])nc3)c(O)cc2Br)C1=O (centres undefined) | ≤ 0.5 | ≥ 10 | 2.5 to 10 |
| O=C1/C(=C/c2cc(OCc3cnc(NCc4ccccn4)nc3)c(O)c(F)c2Br)Sc2ncccc21 | ≤ 0.5 | ≥ 10 | ≥ 10 |

| SMILES | IC50 [1] [µM] | IC50 [2] [µM] | IC50 [3] [µM] |
| --- | --- | --- | --- |
| O=C1/C(=C/c2cc(OCc3cnc(NCc4cccnc4)nc3)c(O)c(F)c2Br)Sc2ncccc21 | ≤ 0.5 | ≥ 10 | 2.5 to 10 |
| CNc1ncc(COc2cc(/C=C3\Sc4ncccc4C3=O)c(Br)c(F)c2O)cn1 | ≤ 0.5 | ≥ 10 | 2.5 to 10 |
| C[S+]([O-])c1ncc(COc2cc(/C=C3\Sc4ncccc4C3=O)c(Br)c(F)c2O)cn1 (centres undefined) | 0.5 to 10 | ≥ 10 | 2.5 to 10 |
| C[S+]([O-])c1ncc(COc2cc(/C=C3\Sc4ncccc4C3=O)c(Br)cc2O)cn1 (centres undefined) | ≤ 0.5 | 2.5 to 10 | ≤ 2.5 |
| CNc1ncc(COc2cc(/C=C3\SC(=O)N(C)C3=O)c(Br)cc2O)cn1 | ≤ 0.5 | ≥ 10 | ≤ 2.5 |
| CN1C(=O)S/C(=C\c2cc(OCc3cncnc3N)c(O)cc2Br)C1=O | ≤ 0.5 | ≥ 10 | ≤ 2.5 |
| CN1C(=O)S/C(=C\c2cc(OCc3ccc(N)nc3)c(O)cc2Br)C1=O | ≥ 10 | 2.5 to 10 | 2.5 to 10 |
| CN1C(=O)S/C(=C\c2cc(OCc3cnc(N)nc3)c(O)cc2Br)C1=O | ≤ 0.5 | ≥ 10 | ≤ 2.5 |
| Nc1ncc(COc2cc(/C=C3\Sc4ncccc4C3=O)c(Br)cc2O)cn1 | ≤ 0.5 | ≥ 10 | ≤ 2.5 |
| CN1C(=O)S/C(=C\c2cc(OCc3cncnc3)c(O)cc2Br)C1=O | ≤ 0.5 | ≥ 10 | ≤ 2.5 |
| Nc1ncc(COc2cc(/C=C3\Sc4ncccc4C3=O)c(Br)c(F)c2O)cn1 | ≤ 0.5 | ≥ 10 | ≤ 2.5 |
| COc1cc(/C=C2\SC(=O)N(C)C2=O)c(Br)cc1O | ≤ 0.5 | ≥ 10 | ≤ 2.5 |
| CN1C(=O)S/C(=C\c2cc(OCC3CCCCC3)c(O)cc2Br)C1=O | ≥ 10 | 2.5 to 10 | 2.5 to 10 |
| CC(Oc1cc(/C=C2\SC(=O)N(C)C2=O)c(Br)cc1O)c1cncnc1N (centres undefined) | ≤ 0.5 | ≥ 10 | 2.5 to 10 |
| O=C1/C(=C/c2cc(OCc3cnc(NCc4ccncc4)nc3)c(O)cc2Br)Sc2ncccc21 | ≤ 0.5 | ≥ 10 | ≤ 2.5 |
| CN1C(=O)S/C(=C\c2cc(OCCc3cnc(N)nc3)c(O)c(F)c2Br)C1=O | ≤ 0.5 | ≥ 10 | ≤ 2.5 |
| CC1C(=O)S/C(=C\c2cc(OC(C)c3cnc(N)nc3C(F)(F)F)c(O)c(F)c2Br)C1=O (centres undefined) | ≤ 0.5 | ≥ 10 | 2.5 to 10 |
| CN1C(=O)S/C(=C\c2cc(OCc3cnc(N)nc3C3CC3)c(O)cc2Br)C1=O | ≤ 0.5 | ≥ 10 | 2.5 to 10 |
| CN1C(=O)S/C(=C\c2cc3c(-c4cnc(N)nc4)c[nH]c3c(F)c2Br)C1=O | ≤ 0.5 | ≥ 10 | 2.5 to 10 |
